Reference: patent US10556888B2, “Pyrazole compounds or salts thereof, preparation methods therefor, herbicidal compositions and use thereof” (QINGDAO KINGAGROOT CHEMICAL COMPOUNDS CO., LTD, priority 2015, dated 2020)

Legend:
[1] = system: main crop (wheat, corn, rice, soybean, cotton, oilseed, millet and sorghum); experiment: Post-emergence test experiment, main crops (Table 2); format: in vivo; set-up: key: Level 10: completely dead; Level 9: above 90% growth inhibition rate; Level 8: above 80% growth inhibition rate; Level 7: above 70% growth inhibition rate; Level 6: above 60% growth inhibition rate; Level 5: above 50% growth inhibition rate; Level 4: above 30% growth inhibition rate; Level 3: above 20% growth inhibition rate; Level 2: above 10% growth inhibition rate; Level 1: above 1-10% growth inhibition rate; Level 0: no effect; conditions: 30 g/ha, 3 weeks after spraying, greenhouse
In short: (§1)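 Compounds, dissolved in acetone, mixed with Tween 80 and diluted in water, were sprayed post-emergence onto greenhouse-grown weeds and crops at the 2-3 leaf stage (2-3 weeks post-sowing). Plants then grown 3 more weeks in the greenhouse before evaluation.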

[2] = system: Monocotyledonous and dicotyledonous weed; experiment: Post-emergence test experiment, weed control effect (Table 2); format: in vivo; set-up: key to weed control effect, Setaria viridis (level) / weed control effect, Rorippa indica (level) / weed control effect, Abutilon theophrasti (level) / weed control effect, Echinochloa crus-galli (level) / weed control effect, Digitaria sanguinalis (level): Level 10: completely dead; Level 9: above 90% growth inhibition rate; Level 8: above 80% growth inhibition rate; Level 7: above 70% growth inhibition rate; Level 6: above 60% growth inhibition rate; Level 5: above 50% growth inhibition rate; Level 4: above 30% growth inhibition rate; Level 3: above 20% growth inhibition rate; Level 2: above 10% growth inhibition rate; Level 1: above 1-10% growth inhibition rate; Level 0: no effect; conditions: 30 g/ha, 3 weeks after spraying, greenhouse
In short: as §1

Structure (SMILES) | effect on crop, corn (level) [1] | effect on crop, rice (level) [1] | effect on crop, wheat (level) [1] | weed control effect, Abutilon theophrasti (level) [2] | weed control effect, Bidens pilosa (level) [2] | weed control effect, Digitaria sanguinalis (level) [2] | weed control effect, Echinochloa crus-galli (level) [2] | weed control effect, Rorippa indica (level) [2] | weed control effect, Setaria viridis (level) [2]
COCCCOCc1c(S(C)(=O)=O)ccc(C(=O)c2cnn(C)c2OC(=O)c2cnn(C)c2)c1Cl [Compound 62] | 0 | 3 (Level 3: above 20% growth inhibition rate) | 0 | 7 (Level 7: above 70% growth inhibition rate) | 7 (Level 7: above 70% growth inhibition rate) | 7 (Level 7: above 70% growth inhibition rate) | 10 | 10 | 7 (Level 7: above 70% growth inhibition rate)
Cc1nn(C)c(OC(=O)c2cnn(C)c2)c1C(=O)c1ccc(S(C)(=O)=O)c(COCC(F)(F)F)c1Cl [Compound 63] | 1 (Level 1: above 1-10% growth inhibition rate) | 6 (Level 6: above 60% growth inhibition rate) | 0 | 7 (Level 7: above 70% growth inhibition rate) | 7 (Level 7: above 70% growth inhibition rate) | 10 | 10 | 10 | 10
Cc1nn(C)c(OC(=O)c2cnn(C)c2)c1C(=O)c1ccc(S(C)(=O)=O)c(COCC(F)F)c1Cl [Compound 64] | 2 (Level 2: above 10% growth inhibition rate) | 3 (Level 3: above 20% growth inhibition rate) | 0 | 5 (Level 5: above 50% growth inhibition rate) | 5 (Level 5: above 50% growth inhibition rate) | 9 (Level 9: above 90% growth inhibition rate) | 10 | 10 | 10
Cc1nn(C)c(OC(=O)c2cnn(C)c2)c1C(=O)c1ccc(S(C)(=O)=O)c(COCC(F)(F)C(F)F)c1Cl [Compound 65] | 0 | 3 (Level 3: above 20% growth inhibition rate) | 0 | 6 (Level 6: above 60% growth inhibition rate) | 7 (Level 7: above 70% growth inhibition rate) | 7 (Level 7: above 70% growth inhibition rate) | 10 | 10 | 6 (Level 6: above 60% growth inhibition rate)
Cn1cc(C(=O)Oc2c(C(=O)c3ccc(S(C)(=O)=O)c(COCC(F)(F)F)c3Cl)cnn2C)cn1 [Compound 67] | 1 (Level 1: above 1-10% growth inhibition rate) | 3 (Level 3: above 20% growth inhibition rate) | 0 | 7 (Level 7: above 70% growth inhibition rate) | 7 (Level 7: above 70% growth inhibition rate) | 7 (Level 7: above 70% growth inhibition rate) | 10 | 10 | 9 (Level 9: above 90% growth inhibition rate)
C#CCOCc1c(S(C)(=O)=O)ccc(C(=O)c2c(C)nn(C)c2OC(=O)c2cnn(C)c2)c1Cl [Compound 69] | 0 | 3 (Level 3: above 20% growth inhibition rate) | 0 | 7 (Level 7: above 70% growth inhibition rate) | 7 (Level 7: above 70% growth inhibition rate) | 6 (Level 6: above 60% growth inhibition rate) | 10 | 10 | 6 (Level 6: above 60% growth inhibition rate)
CCOCc1c(S(C)(=O)=O)ccc(C(=O)c2c(C3CC3)nn(C)c2OC(=O)c2cnn(C)c2)c1Cl [Compound 70] | 3 (Level 3: above 20% growth inhibition rate) | 3 (Level 3: above 20% growth inhibition rate) | 0 | 7 (Level 7: above 70% growth inhibition rate) | 7 (Level 7: above 70% growth inhibition rate) | 10 | 10 | 10 | 10
Cn1cc(C(=O)Oc2c(C(=O)c3ccc(S(C)(=O)=O)c(COCC(F)(F)C(F)F)c3Cl)c(C3CC3)nn2C)cn1 [Compound 71] | 0 | 3 (Level 3: above 20% growth inhibition rate) | 0 | 6 (Level 6: above 60% growth inhibition rate) | 8 (Level 8: above 80% growth inhibition rate) | 7 (Level 7: above 70% growth inhibition rate) | 8 (Level 8: above 80% growth inhibition rate) | 10 | 5 (Level 5: above 50% growth inhibition rate)
COCc1c(S(C)(=O)=O)ccc(C(=O)c2c(C3CC3)nn(C)c2OC(=O)c2cnn(C)c2)c1Cl [Compound 72] | 2 (Level 2: above 10% growth inhibition rate) | 3 (Level 3: above 20% growth inhibition rate) | 0 | 7 (Level 7: above 70% growth inhibition rate) | 7 (Level 7: above 70% growth inhibition rate) | 8 (Level 8: above 80% growth inhibition rate) | 10 | 10 | 8 (Level 8: above 80% growth inhibition rate)
CCOCc1c(S(C)(=O)=O)ccc(C(=O)c2c(C)nn(C)c2OC(=O)c2cnn(C)c2)c1Cl [Compound 73] | 0 | 3 (Level 3: above 20% growth inhibition rate) | 0 | 7 (Level 7: above 70% growth inhibition rate) | 7 (Level 7: above 70% growth inhibition rate) | 9 (Level 9: above 90% growth inhibition rate) | 10 | 10 | 9 (Level 9: above 90% growth inhibition rate)
CCOCCOCc1c(S(C)(=O)=O)ccc(C(=O)c2c(C3CC3)nn(C)c2OC(=O)c2cnn(C)c2)c1Cl [Compound 74] | 0 | 3 (Level 3: above 20% growth inhibition rate) | 0 | 7 (Level 7: above 70% growth inhibition rate) | 5 (Level 5: above 50% growth inhibition rate) | 6 (Level 6: above 60% growth inhibition rate) | 10 | 10 | 6 (Level 6: above 60% growth inhibition rate)
CCCCOCc1c(S(C)(=O)=O)ccc(C(=O)c2c(C3CC3)nn(C)c2OC(=O)c2cnn(C)c2)c1Cl [Compound 75] | 0 | 3 (Level 3: above 20% growth inhibition rate) | 0 | 5 (Level 5: above 50% growth inhibition rate) | 6 (Level 6: above 60% growth inhibition rate) | 9 (Level 9: above 90% growth inhibition rate) | 10 | 10 | 7 (Level 7: above 70% growth inhibition rate)
Cc1nn(C)cc1C(=O)Oc1c(C(=O)c2ccc(S(C)(=O)=O)c(Cn3cccn3)c2C)cnn1C [Compound 77] | 1 (Level 1: above 1-10% growth inhibition rate) | 3 (Level 3: above 20% growth inhibition rate) | 0 | 7 (Level 7: above 70% growth inhibition rate) | 7 (Level 7: above 70% growth inhibition rate) | 7 (Level 7: above 70% growth inhibition rate) | 10 | 10 | 10
